Calls of active or inactive are those of the source.
What was measured:
Assay type in all cases: functional
H4 = assay: Luminescence Cell-Based Dose Response HTS to Identify Activators of 5'UTR Stem-Loop Driven Prion Protein mRNA Translation in H4 Neuroglioblastoma Cells. [Related pubchem assays: 1829 (Project Summary), 1814 (Primary HTS)]; conditions: Homo sapiens
Wee1-like protein kinase = Wee1-like protein kinase (Homo sapiens, UniProt P30291); assay: Dose Response Cell-based Assay for Inhibitors of Wee1 Degradation. [Related pubchem assays: 1410, 1321 ]
Sequence of Wee1-like protein kinase (P30291 whole entry): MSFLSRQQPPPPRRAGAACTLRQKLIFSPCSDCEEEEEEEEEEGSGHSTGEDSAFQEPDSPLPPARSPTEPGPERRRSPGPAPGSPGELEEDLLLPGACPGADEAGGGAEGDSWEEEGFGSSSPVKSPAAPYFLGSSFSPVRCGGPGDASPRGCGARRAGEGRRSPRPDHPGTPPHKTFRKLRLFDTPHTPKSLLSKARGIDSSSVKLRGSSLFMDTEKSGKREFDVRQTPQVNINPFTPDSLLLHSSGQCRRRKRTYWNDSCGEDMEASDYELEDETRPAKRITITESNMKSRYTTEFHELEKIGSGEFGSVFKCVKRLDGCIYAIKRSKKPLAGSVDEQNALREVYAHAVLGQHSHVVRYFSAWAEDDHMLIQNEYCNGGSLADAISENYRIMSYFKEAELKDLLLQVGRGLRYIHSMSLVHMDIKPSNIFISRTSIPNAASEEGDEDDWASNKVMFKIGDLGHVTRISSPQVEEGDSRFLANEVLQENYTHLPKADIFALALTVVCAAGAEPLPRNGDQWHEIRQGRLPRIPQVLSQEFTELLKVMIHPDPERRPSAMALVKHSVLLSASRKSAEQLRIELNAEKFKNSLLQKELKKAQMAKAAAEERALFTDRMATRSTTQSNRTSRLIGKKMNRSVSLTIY

[1] = Luminescence Cell-Based Dose Response HTS to Identify Activators of Luciferase Translation or Activity in H4 […] Cells. [Related pubchem assays: 1829 (Project Summary), 1814 (Primary HTS)]
[2] = biological target: G2/mitotic-specific cyclin-B1 (Homo sapiens, UniProt P14635); assay: Counterscreen assay for inhibitors of Wee1 degradation: dose response cell-based assay to identify inhibitors of cyclin B degradation. [Related pubchem assays: 1410, 1321 ]
Sequence of G2/mitotic-specific cyclin-B1 (P14635 whole entry): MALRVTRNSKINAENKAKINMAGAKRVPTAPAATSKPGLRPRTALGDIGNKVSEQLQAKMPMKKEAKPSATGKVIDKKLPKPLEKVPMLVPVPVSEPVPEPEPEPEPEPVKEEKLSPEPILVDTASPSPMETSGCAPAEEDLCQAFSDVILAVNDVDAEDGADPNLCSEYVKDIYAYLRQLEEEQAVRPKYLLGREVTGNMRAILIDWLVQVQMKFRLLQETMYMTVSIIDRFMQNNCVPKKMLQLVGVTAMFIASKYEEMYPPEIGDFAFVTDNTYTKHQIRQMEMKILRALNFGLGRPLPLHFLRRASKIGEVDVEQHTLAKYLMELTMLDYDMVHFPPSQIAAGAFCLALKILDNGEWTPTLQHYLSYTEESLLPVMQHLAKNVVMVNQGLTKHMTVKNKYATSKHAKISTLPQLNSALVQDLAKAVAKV

Insulin-degrading enzyme = biological target: T1, Insulin-degrading enzyme (Homo sapiens, UniProt P14735); assay: Dose Response: Fluorescence polarization-based cell-based high throughput dose response assay for inhibitors of insulin-degrading enzyme (IDE). [Related pubchem assays: 434962 (Primary screen (IDE inhibitors in singlicate)), 449730 (Counterscreen (Cytotoxicity in triplicate)), 435028 (Confirmation (IDE inhibitors in triplicate)), 434984 (Summary …
T1 sequence (P14735 whole entry): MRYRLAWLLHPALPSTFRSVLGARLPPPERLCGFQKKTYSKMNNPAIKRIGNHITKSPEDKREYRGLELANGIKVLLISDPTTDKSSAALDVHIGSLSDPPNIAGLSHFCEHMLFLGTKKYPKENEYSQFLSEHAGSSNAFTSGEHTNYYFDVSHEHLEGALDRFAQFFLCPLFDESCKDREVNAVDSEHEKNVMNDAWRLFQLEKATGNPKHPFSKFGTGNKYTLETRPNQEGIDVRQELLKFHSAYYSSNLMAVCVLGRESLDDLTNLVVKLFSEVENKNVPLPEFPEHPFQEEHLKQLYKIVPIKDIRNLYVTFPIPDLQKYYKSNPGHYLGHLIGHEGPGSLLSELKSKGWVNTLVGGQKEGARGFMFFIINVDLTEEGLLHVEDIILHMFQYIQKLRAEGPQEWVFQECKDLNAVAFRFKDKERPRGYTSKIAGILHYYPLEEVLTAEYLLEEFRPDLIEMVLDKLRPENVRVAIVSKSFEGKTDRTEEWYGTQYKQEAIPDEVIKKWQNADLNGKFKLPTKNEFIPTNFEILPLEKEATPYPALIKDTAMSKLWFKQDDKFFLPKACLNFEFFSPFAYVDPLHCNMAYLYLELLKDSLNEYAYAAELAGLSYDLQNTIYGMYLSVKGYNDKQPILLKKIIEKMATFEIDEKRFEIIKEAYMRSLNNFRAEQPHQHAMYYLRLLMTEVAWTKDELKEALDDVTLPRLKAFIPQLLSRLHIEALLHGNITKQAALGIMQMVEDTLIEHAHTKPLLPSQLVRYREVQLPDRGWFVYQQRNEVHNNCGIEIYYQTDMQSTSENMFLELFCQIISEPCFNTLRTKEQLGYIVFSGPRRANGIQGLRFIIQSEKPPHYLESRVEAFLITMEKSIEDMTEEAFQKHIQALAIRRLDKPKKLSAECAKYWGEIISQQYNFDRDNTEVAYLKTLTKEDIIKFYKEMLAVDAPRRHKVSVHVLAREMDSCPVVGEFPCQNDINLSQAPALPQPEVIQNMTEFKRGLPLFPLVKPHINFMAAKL

[3] = biological target: G-protein coupled receptor 55 (Homo sapiens, UniProt Q9Y2T6); assay: GPR55 agonists via beta-arrestin recruitment, primary screen, imaging, U2OS cells, beta-arrestin-GFP redistribution (AID 1961)
Sequence of G-protein coupled receptor 55 (Q9Y2T6 whole entry): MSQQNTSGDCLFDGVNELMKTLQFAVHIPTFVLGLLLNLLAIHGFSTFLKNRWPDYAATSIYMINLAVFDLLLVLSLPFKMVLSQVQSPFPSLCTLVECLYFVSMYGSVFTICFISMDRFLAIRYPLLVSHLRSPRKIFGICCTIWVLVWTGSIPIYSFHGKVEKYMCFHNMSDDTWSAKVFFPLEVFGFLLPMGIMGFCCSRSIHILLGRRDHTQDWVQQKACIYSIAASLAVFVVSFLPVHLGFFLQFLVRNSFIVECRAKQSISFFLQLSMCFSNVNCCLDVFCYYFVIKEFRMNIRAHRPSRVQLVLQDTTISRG

[4] = biological target: T2, Short transient receptor potential channel 4 (Mus musculus, UniProt Q9QUQ5); assay: mouse TRPC4 channel activators, dose response, cell-based, HEK293 TRPC4/mu-opioid, Fluo-4 calcium (AID 434937)
T2 sequence (Q9QUQ5 whole entry): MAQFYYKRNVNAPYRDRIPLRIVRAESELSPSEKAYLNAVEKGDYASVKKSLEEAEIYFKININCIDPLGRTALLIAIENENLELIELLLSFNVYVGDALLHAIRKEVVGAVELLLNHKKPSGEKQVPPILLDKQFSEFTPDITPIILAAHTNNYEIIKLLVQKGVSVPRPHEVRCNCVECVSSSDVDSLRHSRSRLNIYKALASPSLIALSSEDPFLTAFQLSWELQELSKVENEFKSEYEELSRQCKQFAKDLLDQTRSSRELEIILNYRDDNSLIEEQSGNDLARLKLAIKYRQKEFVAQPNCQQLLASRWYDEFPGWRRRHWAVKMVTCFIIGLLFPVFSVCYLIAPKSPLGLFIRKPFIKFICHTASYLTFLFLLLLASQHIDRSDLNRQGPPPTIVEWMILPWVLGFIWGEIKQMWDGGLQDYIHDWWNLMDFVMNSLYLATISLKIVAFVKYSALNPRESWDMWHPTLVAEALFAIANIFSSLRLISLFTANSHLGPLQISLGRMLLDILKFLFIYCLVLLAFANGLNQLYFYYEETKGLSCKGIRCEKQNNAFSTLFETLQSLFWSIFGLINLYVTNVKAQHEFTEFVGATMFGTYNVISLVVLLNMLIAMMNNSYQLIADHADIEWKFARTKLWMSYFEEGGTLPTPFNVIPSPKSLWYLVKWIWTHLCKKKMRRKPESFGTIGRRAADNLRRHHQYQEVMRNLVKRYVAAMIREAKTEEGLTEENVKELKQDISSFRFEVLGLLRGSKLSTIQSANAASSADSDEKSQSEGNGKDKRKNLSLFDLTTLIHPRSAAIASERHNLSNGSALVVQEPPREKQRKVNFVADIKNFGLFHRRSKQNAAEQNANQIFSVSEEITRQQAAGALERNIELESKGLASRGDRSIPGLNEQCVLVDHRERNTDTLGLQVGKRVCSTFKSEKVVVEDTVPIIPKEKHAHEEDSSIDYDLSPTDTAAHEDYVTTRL

[5] = Counterscreen for IDE inhibitors: Luminescence-based cell-based high throughput dose response assay to identify compounds that are cytotoxic to HEK cells. [Related pubchem assays: 434962 (Primary screen (IDE inhibitors in singlicate)), 449730 (Counterscreen (Cytotoxicity in triplicate)), 435028 (Confirmation (IDE inhibitors in triplicate)) …; conditions: HEK293

Compound | EC50 (H4) | EC50 (Wee1-like protein kinase) | EC50 [1] | EC50 [2] | IC50 (Insulin-degrading enzyme) | EC50 [3] | EC50 [4] | IC50 [5]
Cc1cccn2c1nc(=S)n2C(=O)c1ccco1 | 0.104 µM (active) | > 49.7 µM (not active) | 1.05 µM (active) | > 49.7 µM (not active) |  |  |  | 
CN(C)c1ccc(/C=C/C(=O)c2c(O)oc3ccccc3c2=O)cc1 |  |  |  |  | > 2.07 µM (active) | 19.5 µM (inactive) | 7.5 µM (active) | > 55.7 µM (not active)

Reference: ChEMBL document CHEMBL1201862, “PubChem BioAssay data set” (2004)
